Experimental data published in patent EP1007514B1, “HETEROCYCLIC KETONES AS NPY Y5 ANTAGONISTS” (BAYER CORPORATION, priority 1997, dated 1999).

What was measured:
human Y4/PP1 = human Y4/PP1 (Homo sapiens, UniProt P50391); test: NPY Y4/PP1 receptor membrane binding, [125I] human PP; settings: membrane protein; 50 pM [125I] human PP; test compounds at 5 µM final concentration; read-out: IC50 (µM) NPY receptor indicated hY4/pp1
Method: (§1) Assays to determine binding affinity for human NPY Y2 and Y4/PP1 receptor subtypes are performed on GF/C Millipore 96-well plates pretreated with 0.02% polyethylenimine. The binding buffer for rat NPY Y2 receptor subtype binding is Krebs-Ringer bicarbonate (pH 7.4) containing 0.01% BSA and 0.005% bacitracin. Samples consist of membrane protein, 25 pM [^125I]PYY and test compounds at 5 µM final concentration. Nonspecific binding is defined by 1 µM NPY. The binding buffer for human Y4/PP1 binding consists of 137 mM NaCl, 5.4 mM KCl, 0.44 mM KH2PO4, 1.26 mM CaCl2, 0.81 mM MgSO4, 20 mM HEPES, 1 mM dithiothreitol, 0.1% bacitracin, 100 mg/l streptomycin sulfate, 1 mg/l aprotinin, 10 mg/ml soybean trypsin inhibitor and 0.3% BSA, pH 7.4. Samples consist of membrane protein, 50 pM human [^125I] human PP (hPP:NEN DuPont, Boston MA) and test compounds diluted to a final concentration of 5 µM. One µM hPP is used to define nonspecific binding. After a 2 hour incubation at room temperature with constant mixing, the samples are aspirated on a vacuum manifold, and rinsed with ice-cold binding buffer. The amount of radioactivity in each well is quantitated with either gamma counting or liquid scintillation.

human NPY Y2 = biological target: T1, human NPY Y2 (Homo sapiens, UniProt P49146); test: NPY Y2 receptor membrane binding, [125I]PYY; settings: membrane protein; 25 pM [125I]PYY; test compounds at 5 µM final concentration; read-out: IC50 (µM) NPY receptor indicated hY2
T1 sequence (P49146 1-381): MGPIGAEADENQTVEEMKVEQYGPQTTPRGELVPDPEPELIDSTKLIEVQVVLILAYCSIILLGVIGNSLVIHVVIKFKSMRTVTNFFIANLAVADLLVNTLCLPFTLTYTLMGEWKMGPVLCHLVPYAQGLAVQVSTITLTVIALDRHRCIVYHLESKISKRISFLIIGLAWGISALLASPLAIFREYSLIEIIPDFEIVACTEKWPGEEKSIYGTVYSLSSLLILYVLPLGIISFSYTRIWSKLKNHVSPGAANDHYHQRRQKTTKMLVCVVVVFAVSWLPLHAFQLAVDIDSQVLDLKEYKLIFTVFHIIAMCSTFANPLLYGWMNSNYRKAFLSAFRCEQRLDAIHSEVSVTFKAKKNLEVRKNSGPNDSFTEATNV
Method: as §1, with “The binding buffer for rat NPY Y2 receptor subtype binding is Krebs-Ringer bicarbonate (pH 7.4) containing 0.01% BSA and 0.005% bacitracin.” left out

[1] = biological target: T2, human NPY Y1 receptor subtype (Homo sapiens, UniProt P25929); test: NPY Y1 receptor binding, [125I]PYY on SK-N-MC cells; settings: test compounds at 5 µM final concentration, [125I]PYY about 50 pM, read-out: IC50 (µM) NPY receptor indicated hY1
T2 construct: host or cells: SK-N-MC cells
T2 sequence (P25929 1-384): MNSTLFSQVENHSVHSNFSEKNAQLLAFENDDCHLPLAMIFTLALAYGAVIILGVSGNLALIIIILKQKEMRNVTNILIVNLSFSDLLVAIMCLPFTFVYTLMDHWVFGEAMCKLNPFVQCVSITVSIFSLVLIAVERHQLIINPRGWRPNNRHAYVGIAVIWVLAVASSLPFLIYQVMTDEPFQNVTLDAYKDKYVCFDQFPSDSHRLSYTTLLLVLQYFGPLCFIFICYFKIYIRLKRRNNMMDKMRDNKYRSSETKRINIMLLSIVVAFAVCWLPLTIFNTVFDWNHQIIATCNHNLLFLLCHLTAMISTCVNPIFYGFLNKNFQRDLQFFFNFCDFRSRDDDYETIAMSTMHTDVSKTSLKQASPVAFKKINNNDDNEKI
Method: For instance, test compounds antagonistic to human NPY Y1 receptor subtype can be identified by a modified method of Gordon et al., J. Neurochem. 55:506-513,(1990), wherein SK-N-MC cells (ATCC, Rockville, ND) are plated in 24-well plates. Once confluent, the cells are rinsed with Dulbecco's phosphate buffered saline (DPBS). Cells are then preincubated in binding buffer containing serum-free DMEM, 25 mM HEPES (pH 7.3), 0.5% bovine serum albumin (BSA), 0.1% bacitracin and 0.1mM phenylmethylsulfonyl fluoride for 30 minutes at room temperature. Test compounds at a final concentration of 5 µM, and [^125I] PYY (about 50 pM:NEN-DuPont) are added to the wells, and the cells are incubated for an additional 3 hours at room temperature, followed by rinsing with ice-cold DPBS. Nonspecific binding is defined with 1 µM NPY. After lysing the cells with 1% Triton X-100, the amount of radioactivity in the lysates is quantitated with a gamma counter.

Sequence of human Y4/PP1 (P50391 whole entry): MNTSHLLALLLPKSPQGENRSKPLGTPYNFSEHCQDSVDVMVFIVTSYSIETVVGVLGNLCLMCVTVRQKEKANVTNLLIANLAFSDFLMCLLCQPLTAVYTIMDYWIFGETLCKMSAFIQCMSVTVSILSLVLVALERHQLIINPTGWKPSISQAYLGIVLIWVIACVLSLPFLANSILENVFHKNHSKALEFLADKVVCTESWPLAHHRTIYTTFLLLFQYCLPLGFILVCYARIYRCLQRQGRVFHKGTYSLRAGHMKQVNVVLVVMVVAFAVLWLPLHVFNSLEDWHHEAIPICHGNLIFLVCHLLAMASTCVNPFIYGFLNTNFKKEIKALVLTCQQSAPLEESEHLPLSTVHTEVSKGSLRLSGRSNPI

Row | IC50 (human Y4/PP1) [µM] | IC50 (human NPY Y2) [µM] | IC50 [1] [µM] | SMILES
1 | > 5 | 8.3 | > 5 | Cc1ccc(S(=O)(=O)CC(C(=O)c2nc3cc(C)c(C)cc3[nH]2)c2ccccc2)cc1 (stereo not drawn) [Compound 7, (5,6-Dimethyl-1H-benzoimidazol-2-yl)-2-phenyl-3-(toluene-4-sulfonyl)-propan-1-one]
2 | > 5 | > 5 | > 5 | COc1ccc2[nH]c(C(=O)C(CS(=O)(=O)c3ccc(C)cc3)c3ccccc3)nc2c1 (stereo not drawn) [Compound 14, 1-(5-Methoxy-1H-benzoimidazol-2-yl)-2-phenyl-3-(toluene-4-sulfonyl)-propan-1-one]

More lines, now with the values behind:

Row | SMILES | IC50 (human Y4/PP1) [µM] | IC50 (human NPY Y2) [µM] | IC50 [1] [µM]
3 | Cc1ccc(SCC(C(=O)c2ncc[nH]2)c2ccccc2)cc1 (stereo not drawn) [Compound 2, (1H-Imidazol-2-yl)-2-phenyl-3-p-tolylsulfanyl-propan-1-one] | > 5 | > 5 | > 5
4 | Cc1ccc(S(=O)(=O)CC(C(=O)c2nc3ccccc3s2)c2ccccc2)cc1 (stereo not drawn) [Compound 6, 1-Benzothizol-2-yl-2-phenyl-3-(toluene-4-sulfonyl)-propan-1-one] | > 5 | > 5 | > 5
5 | O=C(c1nc2ccccc2[nH]1)C(CS(=O)(=O)c1ccccc1)c1ccccc1 (stereo not drawn) [Compound 8, 3-Benzenesulfonyl-1-(1H-benzoimidazol-2-yl)-2-phenyl-propan-1-one] | > 5 | > 5 | > 5
6 | COc1ccc(S(=O)(=O)CC(C(=O)c2nc3ccccc3[nH]2)c2ccccc2)cc1 (stereo not drawn) [Compound 10, 1-(1H-Benzoimidazol-2-yl)-3-(4-methoxy-benzenesulfonyl)-2-phenyl-propan-1-one] | > 5 | > 5 | > 5
